Laboratory results as given in US10633332B2, “Guanidine compounds for removal of oxyanions from aqueous solutions and for carbon dioxide capture” (UT-Battelle, LLC, priority 2010, dated 2020).
Where “and” joins values, the source holds several entries; their conditions need not be identical. Equal entries are not always repeated. Where two headings read alike, the source gives them in different places. Marks after values point to notes of the source that are not given here.

Experiments:
[1] = cited from earlier work; for reaction rate of CO2 with the amino acid: 25° C., expected
[2] = literature value; cited from earlier work
[3] = Sulfate separation from seawater (35S radiotracer, β liquid scintillation counting); conditions: for Amount of SO4^2− removed / [SO4^2−] left: initial sulfate 30 mM; for % Sulfate Removed / Sulfate Left: initial sulfate 30 mmol/L
Experimental: The seawater used in the experiment was collected from the gulf stream in the Atlantic Ocean. Prior to use, the water was pre-filtered to remove suspended particulates and small organisms. […] The sulfate concentration in seawater was estimated to be about 30 mM by titration with BaCl2. […] A volume of 0.75 mL of each of these solutions was pipetted into a 2 mL Eppendorf microcentrifuge tube, and 0.75 mL of seawater pre-spiked with the ^35S radiotracer was added. The resulting solution mixtures were mixed for 24 hours using a rotating wheel set at 60 rpm in a temperature-controlled air-box set at 25±0.2° C. […] The radiolabeled ^35S radiotracer is a β emitter, thereby allowing determination of the sulfate concentration of a solution spiked with a known amount of Na2^35SO4 by β liquid scintillation counting. The seawater solutions were pre-spiked with […] of the ^35S radiotracer, as above. […] The volume of the spike solution was determined by factoring in the original activity of the solution and correcting for the short half-life of the ^35S radiotracer. The Na2^35SO4 solution had completed 3.8 half-lives before use in this experiment. […] The resulting mixtures were vigorously shaken to allow for complete dissolution and dispersion of the salt solutions. The samples were then placed on the analyzer and counted for 30 minutes after allowing 60 minutes for dark-adaption.

[4] = Aqueous solubility of BBIG salts (gravimetric / UV spectroscopy); conditions: 25 °C, water, thermodynamic from solid
Experimental: The solubility of BBIG-Cl was determined gravimetrically. A saturated solution of BBIG-Cl was obtained by placing an excess of the salt in a 15 mL polypropylene centrifuge tube and adding 2 mL of deionized water (milli-Q). […] One mL of the saturated salt solution was then pipetted into a pre-weighed glass vial containing a magnetic stir bar. The water was then removed under reduced pressure and gentle heating (˜50° C.) while stirring. The resulting solid was left under vacuum overnight to ensure complete removal of the water, prior to weighing the vial.
These solutions were then diluted to ensure the concentrations of the BBIG di-cation were in the concentration range of the calibration curve.

[5] = Sulfate removal from a calcium sulfate suspension (CaSO4 dissolution cycle); conditions: overnight, room temperature, pH 6-7, powder X-ray diffraction
Experimental: An example of sulfate removal from a calcium sulfate suspension is shown schematically in FIG. 5. In the first step, the initial CaSO4 solid is treated with an aqueous chloride salt of the compound that results in crystallization of the guanidinium sulfate salt and release of the calcium ions in solution, as soluble CaCl2. In the second step, the insoluble guanidinium sulfate salt is treated with sodium hydroxide base to neutralize the guanidinium cations and release the sulfate ions in solution, as soluble Na2SO4. The resulting solid guanidine compound is then recycled and converted back into guanidinium chloride with aqueous HCl, so it can be reused in another CaSO4 dissolution cycle. Thus, the entire process is done in water (no organic solvents used), and the only chemicals consumed in the overall process are NaOH and HCl, resulting in two aqueous waste streams consisting of calcium chloride and sodium sulfate. The unique aspect of this invention is the employment of a crystallization process to achieve dissolution of CaSO4. Also, this approach is based on anion chelation by guanidinium groups rather than the more common metal chelation, which may be prone to interference from other metals in solution. […] Finally, the recovered BBIG was converted back into the chloride salt by treatment with aqueous hydrochloric acid and recycled for another CaSO4 dissolution cycle.

[6] = aqueous, ˜10 mM
[7] = Thermodynamic analysis: reaction enthalpies (variable-temperature solubility, pKa, van't Hoff)
[8] = Carbonate/bicarbonate CO2 capture cycle: crystallization from 1 M NaHCO3
Excerpt: Finally, thermal decomposition of PyBIGH2(CO3)(H2O)4 regenerates the PyBIG compound and releases the CO2. […] The resulting mixture was filtered, and the separated crystalline solid was confirmed by PXRD and FTIR to be PyBIGH2(CO3)(H2O)4. […] The entire carbonate separation cycle was run three times, with observed yields for PyBIGH2(CO3)(H2O)4 crystallization of 99.0±0.4%, 97.2±0.6%, and 91.4±0.4%, corresponding to the first, second, and third cycle, respectively. The regeneration of the PyBIG compound was nearly quantitative in each cycle.

[9] = Differential scanning calorimetry of CO2 release; type: physicochemical; conditions: DSC, all peaks between 80 and 140° C. integrated
Excerpt: Although the CO2 desorption could theoretically be achieved by running reactions 1-6 in reverse order according to the principle of microscopic reversibility, in reality it would not be feasible as reaction 4 is practically irreversible. Such an approach would also defeat the purpose of avoiding heating the aqueous sorbent. Instead, once the loading is complete, the crystalline PyBIGH2(CO3)(H2O)4 is removed from solution and heated in the solid state to release the CO2 gas and the water vapors. Given the completely different conditions involved, such a gas-solid process must have different energetics compared to the gas-liquid-solid process involved in CO2 absorption. In order to determine the enthalpy of CO2 release, differential scanning calorimetry (DSC) was employed. DSC is a common technique used in thermal analysis of solids. […] As the enthalpy of vaporization for water is 40.65 kJ/mol, more than 90% of the enthalpy of desorption is used for water evaporation. This represents a significant energy penalty that must be accounted for, and which encourages the use of renewable sources of energy, such as concentrated solar power (vide infra), to make the overall DAC process energy more sustainable.

[10] = CO2 release and PyBIG regeneration using concentrated solar power; type: physicochemical; conditions: for Δm: 38 mg sample
Experimental: Carbon dioxide release and regeneration of PyBIG using concentrated solar power: The CO2 release from the PyBIGH2(CO3)(H2O)4 crystals was carried out by solar heating with a solar oven. The oven consists of a vacuum-insulated borosilicate tube placed in the focal point of two adjustable parabolic reflectors. The temperature inside the tube was monitored with a thermocouple. The PyBIGH2(CO3)(H2O)4 samples (0.038 g, 0.1 mmol) were loaded in 1 mL glass vials, which were placed inside the oven tube. The solar oven was then placed in the full sun and oriented to capture the maximum amount of sunlight. The temperature was ramped to the targeted values of 120° C., 140° C., 150° C., or 160° C. as fast as possible (typically within 3 to 10 minutes), then held within ±2° C. by intermittently moving the oven out of the sun, or/and closing the reflectors. The samples were subsequently removed from the tube, allowed to cool to room temperature, and weighed to determine their mass loss. The resulting yellow solids were analyzed by FTIR to confirm the disappearance of the carbonate and water peaks.
However, considering this transformation is highly endothermic, the possibility of using concentrated solar power to render the process more energy sustainable was explored. For the initial small-scale proof of concept, a solar oven (FIG. 6) was used to heat the PyBIGH2(CO3)(H2O)4 samples (38 mg, 0.1 mmol) at four different temperatures ranging between 120 and 160° C., monitoring the extent of the reactions by the samples' weight loss (Table 7 below). FTIR analyses also corroborated the release of CO2, most evidently noticeable by the disappearance of the strong peak at 1361 cm^−1 corresponding to the stretching mode of the carbonate anion.

[Na+].[OH-] [NaOH]
flux of CO2 absorbed from air ([1]; 1 M solution): around 30 μmol/m2/s

NCC(=O)O [Glycine, glycine]
reaction rate of CO2 with the amino acid [1]: 13.9 kM/s
pKa [2]: 9.5

Cl.Cl.N=C(N)N/N=C/c1ccc(/C=N/NC(=N)N)cc1 [Compound 1]
degree of separation of sulfate from seawater [3]: very high degrees of separation
Amount of SO4^2− removed ([3]; 1 equiv BBIG): 88%
[SO4^2−] left ([3]; 1 equiv BBIG): 3.5 mM
Amount of SO4^2− removed ([3]; 1.1 equiv BBIG): 95%
[SO4^2−] left ([3]; 1.1 equiv BBIG): 1.6 mM
Amount of SO4^2− removed ([3]; 1.5 equiv BBIG): 99%
[SO4^2−] left ([3]; 1.5 equiv BBIG): 0.3 mM
Amount of SO4^2− removed ([3]; 2 equiv BBIG): 99%
[SO4^2−] left ([3]; 2 equiv BBIG): 0.3 mM
% Sulfate Removed ([3]; compound 15 mmol/L): 40.8% and 41.8%
Sulfate Left ([3]; compound 15 mmol/L): 1706 mg/L and 1676 mg/L
% Sulfate Removed ([3]; compound 30 mmol/L): 88.7% and 88.0%
Sulfate Left ([3]; compound 30 mmol/L): 326 mg/L and 347 mg/L
% Sulfate Removed ([3]; compound 33 mmol/L): 95.6% and 93.6%
Sulfate Left ([3]; compound 33 mmol/L): 128 mg/L and 185 mg/L
% Sulfate Removed ([3]; compound 45 mmol/L): 99.0% and 98.9%
Sulfate Left ([3]; compound 45 mmol/L): 28 mg/L and 30 mg/L
% Sulfate Removed ([3]; compound 60 mmol/L): 98.9%
Sulfate Left ([3]; compound 60 mmol/L): 31 mg/L
solubility at 48 h [4]: 63 mM
conversion of solid CaSO4(H2O)2 into crystalline BBIG-SO4(H2O)2 [5]: complete conversion

N=C(N)N/N=C/c1cccc(/C=N/NC(=N)N)n1 [PyBIG]
pH of saturated solution [6]: about 10
ΔH reaction 1 (PyBIG dissolution) ([7]; This study): 10.2 kcal/mol
ΔH reaction 6 (PyBIGH2(CO3)(H2O)4 crystallization) ([7]; This study): -11.2 kcal/mol
ΔH reaction 2 (PyBIG protonation by water) ([7]; This study, composed from protonation enthalpies and ionization of water): 43.6^a kJ/mol
overall enthalpy of CO2 absorption ([7]; sum of reactions 1-6): -16.9 kcal/mol
no decomposition of the regenerated compound up to (TGA-MS): 190 °C

CNCC(=O)O [Sarcosine, sarcosine]
reaction rate of CO2 with the amino acid [1]: 18.6 kM/s

Cl.Cl.N=C(N)N/N=C/c1cccc(/C=N/NC(=N)N)n1 [Compound 2]
degree of separation of sulfate from seawater [3]: very high degrees of separation
% Sulfate Removed ([3]; compound 15 mmol/L): 48.41% and 48.57%
Sulfate Left ([3]; compound 15 mmol/L): 1487 mg/L and 1482 mg/L
% Sulfate Removed ([3]; compound 30 mmol/L): 93.28% and 94.41%
Sulfate Left ([3]; compound 30 mmol/L): 194 mg/L and 161 mg/L
% Sulfate Removed ([3]; compound 33 mmol/L): 99.72% and 99.60%
Sulfate Left ([3]; compound 33 mmol/L): 8 mg/L and 12 mg/L
% Sulfate Removed ([3]; compound 45 mmol/L): 99.94%
Sulfate Left ([3]; compound 45 mmol/L): 1.7 mg/L
% Sulfate Removed ([3]; compound 60 mmol/L): 99.95%
Sulfate Left ([3]; compound 60 mmol/L): 1.5 mg/L

N=C(N)NN=Cc1cccc(C=NNC(=N)N)n1.O.O.O.O.O=C(O)O [PyBIGH2(CO3)(H2O)4]
yield of PyBIGH2(CO3)(H2O)4 crystallization ([8]; first cycle, 1 M NaHCO3, room temperature, four hours): 99.0±0.4%
yield of PyBIGH2(CO3)(H2O)4 crystallization ([8]; second cycle): 97.2±0.6%
yield of PyBIGH2(CO3)(H2O)4 crystallization ([8]; third cycle): 91.4±0.4%
overall enthalpy of desorption [9]: 53.3 ± 0.96 kcal/mol
Δm/mi ([10]; 120° C., 30 min): −31.6%
Δm ([10]; 120° C., 30 min): -12 mg
Δm/mi ([10]; 140° C., 10 min): −34.2%
Δm ([10]; 140° C., 10 min): -13 mg
Δm/mi ([10]; 150° C., 5 min): −31.6%
Δm ([10]; 150° C., 5 min): -12 mg
Δm/mi ([10]; 160° C., 2 min): −36.8%
Δm ([10]; 160° C., 2 min): -14 mg
temperature of heating at which CO2 is released (heating the carbonate crystals): 80-120 °C
decomposition completion (isothermal TGA at 80° C., after 300 minutes): 77%
time to complete loss of carbon dioxide and water (isothermal TGA at 100° C.): 150 min
time to complete loss of carbon dioxide and water (isothermal TGA at 120° C.): 60 min
mass loss (oven, one hour at 120° C.): 34.3%
mass loss (temperature-ramped TGA, between 65 and 140° C.): 35.2%
